Values after ≈ are worked out from the molar mass of the structure shown.
How the values were obtained:
Staphylococcus aureus [1] = experiment: Antibacterial activity against methicillin resistant Staphylococcus aureus SR3637; type: functional
Enterococcus faecium = experiment: Antibacterial activity against Enterococcus faecium SR7917 (VRE); type: functional
Enterococcus faecalis [2] = experiment: Antibacterial activity against Enterococcus faecalis SR7914 (VRE); type: functional
Enterococcus faecalis [3] = experiment: Antibacterial activity against Enterococcus faecalis ATCC 29212; type: functional
Staphylococcus aureus [4] = experiment: Antibacterial activity against methicillin susceptible Staphylococcus aureus ATCC 29213; type: functional
[5] = target: T1, Phospho-N-acetylmuramoyl-pentapeptide-transferase (Bacillus subtilis (strain 168), UniProt Q03521); experiment: Inhibition of MraY in Bacillus subtilis
T1 sequence (Q03521 whole entry): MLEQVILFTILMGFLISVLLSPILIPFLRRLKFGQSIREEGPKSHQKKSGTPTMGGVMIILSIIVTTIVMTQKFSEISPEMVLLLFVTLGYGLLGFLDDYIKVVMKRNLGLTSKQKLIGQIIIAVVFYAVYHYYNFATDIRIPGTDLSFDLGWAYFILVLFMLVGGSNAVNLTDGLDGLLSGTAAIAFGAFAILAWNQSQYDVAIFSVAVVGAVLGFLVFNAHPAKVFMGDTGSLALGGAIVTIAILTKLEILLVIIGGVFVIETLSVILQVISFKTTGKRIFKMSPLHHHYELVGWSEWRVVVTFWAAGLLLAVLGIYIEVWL

[6] = target: T2, Phospho-N-acetylmuramoyl-pentapeptide-transferase (Aquifex aeolicus (strain VF5), UniProt O66465); experiment: Inhibition of MraY in Aquifex aeolicus
T2 sequence (O66465 whole entry): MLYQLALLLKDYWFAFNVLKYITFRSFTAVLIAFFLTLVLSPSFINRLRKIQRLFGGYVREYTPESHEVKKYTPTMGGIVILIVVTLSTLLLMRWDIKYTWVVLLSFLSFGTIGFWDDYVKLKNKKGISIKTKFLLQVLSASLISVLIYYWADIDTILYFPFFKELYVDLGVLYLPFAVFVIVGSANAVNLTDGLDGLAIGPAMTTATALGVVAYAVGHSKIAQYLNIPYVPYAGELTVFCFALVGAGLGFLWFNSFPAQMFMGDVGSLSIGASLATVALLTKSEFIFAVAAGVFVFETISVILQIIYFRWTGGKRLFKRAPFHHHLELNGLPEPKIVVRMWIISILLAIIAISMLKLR

[7] = test system: Mycobacterium tuberculosis; experiment: Antibacterial activity against Mycobacterium tuberculosis H37Rv; type: functional
[8] = test system: Mycobacterium tuberculosis; experiment: Antibacterial activity against Mycobacterium tuberculosis Kurono; type: functional
Staphylococcus aureus [9] = experiment: Antibacterial activity against methicillin resistant Staphylococcus aureus No. 5; type: functional
Mycolicibacterium phlei = experiment: Antibacterial activity against Mycobacterium phlei; type: functional
Bacillus subtilis = experiment: Antibacterial activity against Bacillus subtilis PCI 219; type: functional
[10] = test system: Mycolicibacterium smegmatis; experiment: Antibacterial activity against Mycobacterium smegmatis ATCC 607; type: functional
Mycolicibacterium vaccae = experiment: Antibacterial activity against Mycobacterium vaccae ATCC 15483; type: functional
Streptococcus pneumoniae = experiment: Antibacterial activity against Streptococcus pneumoniae PCI 602; type: functional
[11] = test system: Mycobacterium tuberculosis; experiment: Antibacterial activity against Mycobacterium tuberculosis JCM 6384; type: functional
[12] = Antibacterial activity against Mycobacterium avium subsp. avium ATCC 25291; type: functional
Staphylococcus aureus [13] = experiment: Antibacterial activity against Staphylococcus aureus FDA 209P; type: functional
Staphylococcus aureus [14] = experiment: Antibacterial activity against methicillin resistant Staphylococcus aureus MS16526; type: functional
Escherichia coli = experiment: Antibacterial activity against Escherichia coli K-12; type: functional

## CCCCCCCCCCCCCCC[C@H](NC(=O)[C@@H](N)CCCNC(=N)N)C(=O)NC[C@@H]1CC2[C@H](C(=O)N1)[C@@H]([C@H]1O[C@@H](n3ccc(=O)[nH]c3=O)[C@H](O)[C@@H]1O)ON2CCCN (single isomer, unassigned)
Staphylococcus aureus [1]
  MIC: 32 µg/mL (≈ 37 µM)
Enterococcus faecium
  MIC: 16 µg/mL (≈ 18.5 µM)
Enterococcus faecalis [2]
  MIC: 32 µg/mL (≈ 37 µM)
Enterococcus faecalis [3]
  MIC: 32 µg/mL (≈ 37 µM)
Staphylococcus aureus [4]
  MIC: > 64 µg/mL

## NC[C@H]1O[C@@H](O[C@@H](c2cn(C3CCCCCC3)nn2)[C@H]2O[C@@H](n3ccc(=O)[nH]c3=O)[C@H](O)[C@@H]2O)[C@H](O)[C@@H]1O
[5]
  IC50: > 1000 µM

## NC[C@H]1O[C@@H](O[C@@H](c2cn(CCCCCN3CCCCC3)nn2)[C@H]2O[C@@H](n3ccc(=O)[nH]c3=O)[C@H](O)[C@@H]2O)[C@H](O)[C@@H]1O
[5]
  IC50: 150 µM

## NCCCCCn1cc([C@H](O[C@@H]2O[C@H](CN)[C@@H](O)[C@H]2O)[C@H]2O[C@@H](n3ccc(=O)[nH]c3=O)[C@H](O)[C@@H]2O)nn1
[5]
  IC50: > 1000 µM

## NC[C@H]1O[C@@H](O[C@@H](c2cn(CCCOc3ccc(C(=O)c4ccccc4)cc3)nn2)[C@H]2O[C@@H](n3ccc(=O)[nH]c3=O)[C@H](O)[C@@H]2O)[C@H](O)[C@@H]1O [listing 1 of 2 here]
[6]
  IC50: 125 µM
[5]
  IC50: 100 µM

## NC[C@H]1O[C@@H](O[C@@H](Cc2cn(CCOCCOCCOCCOCCO)nn2)[C@H]2O[C@@H](n3ccc(=O)[nH]c3=O)[C@H](O)[C@@H]2O)[C@H](O)[C@@H]1O
[6]
  IC50: 750 µM

## C#C[C@H](O[C@@H]1O[C@H](CN)[C@@H](O)[C@H]1O)[C@H]1O[C@@H](n2ccc(=O)[nH]c2=O)[C@H](O)[C@@H]1O
[5]
  IC50: 100 µM

## CCCCCCCCCCCCNC(=O)C1=CCN(C)[C@@H]([C@H](O[C@@H]2O[C@H](CN)[C@@H](O)[C@H]2O)[C@H]2O[C@@H](n3ccc(=O)[nH]c3=O)[C@H](O)[C@@H]2O)C(=O)N1C
[7]
  MIC: 1.56 µg/mL (≈ 2.15 µM)
[8]
  MIC: 1.56 µg/mL (≈ 2.15 µM)
Staphylococcus aureus [9]
  MIC: 12.5 µg/mL (≈ 17.2 µM)
Mycolicibacterium phlei
  MIC: 0.39 µg/mL (≈ 0.538 µM)
Bacillus subtilis
  MIC: 0.78 µg/mL (≈ 1.08 µM)
[10]
  MIC: 0.39 µg/mL (≈ 0.538 µM)
Mycolicibacterium vaccae
  MIC: 1.56 µg/mL (≈ 2.15 µM)
Streptococcus pneumoniae
  MIC: 6.25 µg/mL (≈ 8.62 µM)
[11]
  MIC: 0.2 µg/mL (≈ 0.276 µM)
[12]
  MIC: 3.13 µg/mL (≈ 4.32 µM)
Staphylococcus aureus [13]
  MIC: 3.13 µg/mL (≈ 4.32 µM)
Staphylococcus aureus [14]
  MIC: 6.25 µg/mL (≈ 8.62 µM)
Escherichia coli
  MIC: 100 µg/mL (≈ 138 µM)

## NC[C@H]1O[C@@H](O[C@@H](Cc2cn(CCCCCCCCCCOc3ccc(C(=O)c4ccccc4)cc3)nn2)[C@H]2O[C@@H](n3ccc(=O)[nH]c3=O)[C@H](O)[C@@H]2O)[C@H](O)[C@@H]1O
[6]
  IC50: 25 µM

## NC[C@H]1O[C@@H](O[C@@H](c2cn(CCCc3ccccc3)nn2)[C@H]2O[C@@H](n3ccc(=O)[nH]c3=O)[C@H](O)[C@@H]2O)[C@H](O)[C@@H]1O
[5]
  IC50: 250 µM

## NC[C@H]1O[C@@H](O[C@@H](c2cn(CCCCCOc3ccc(C(=O)c4ccccc4)cc3)nn2)[C@H]2O[C@@H](n3ccc(=O)[nH]c3=O)[C@H](O)[C@@H]2O)[C@H](O)[C@@H]1O
[5]
  IC50: 100 µM

## NC[C@H]1O[C@@H](O[C@@H](Cn2cc(CCCCCCCCCCO)nn2)[C@H]2O[C@@H](n3ccc(=O)[nH]c3=O)[C@H](O)[C@@H]2O)[C@H](O)[C@@H]1O
[6]
  IC50: 75 µM

## NC[C@H]1O[C@@H](O[C@@H](c2cn(CCN3CCN(c4ccc(N)cn4)CC3)nn2)[C@H]2O[C@@H](n3ccc(=O)[nH]c3=O)[C@H](O)[C@@H]2O)[C@H](O)[C@@H]1O
[5]
  IC50: > 1000 µM

## NC[C@H]1O[C@@H](O[C@@H](c2cn(CCCOc3ccc(C(=O)c4ccccc4)cc3)nn2)[C@H]2O[C@@H](n3ccc(=O)[nH]c3=O)[C@H](O)[C@@H]2O)[C@H](O)[C@@H]1O [listing 2 of 2 here]
[5]
  IC50: 100 µM

## CCCCCCCCCCn1cc([C@H](O[C@@H]2O[C@H](CN)[C@@H](O)[C@H]2O)[C@H]2O[C@@H](n3ccc(=O)[nH]c3=O)[C@H](O)[C@@H]2O)nn1
[5]
  IC50: 140 µM

## NC[C@H]1O[C@@H](O[C@@H](c2cn(CCCn3ccnc3)nn2)[C@H]2O[C@@H](n3ccc(=O)[nH]c3=O)[C@H](O)[C@@H]2O)[C@H](O)[C@@H]1O
[5]
  IC50: > 1000 µM

## NC[C@H]1O[C@@H](O[C@@H](c2cn(CCCO)nn2)[C@H]2O[C@@H](n3ccc(=O)[nH]c3=O)[C@H](O)[C@@H]2O)[C@H](O)[C@@H]1O
[5]
  IC50: > 1000 µM
